Active and inactive are the calls of the source. No cut-off for these calls is given here.

Data on two compounds can be found in ChEMBL document CHEMBL4145551, “Mitochondria-targeting indolizino[3,2-c]quinolines as novel class of photosensitizers for photodynamic anticancer activity” (Eur J Med Chem, 2018).

For the first series, the system named is A549. The series is described as follows: Photocytotoxicity against human A549 cells assessed as reduction in cell viability preincubated for 1 hr followed blue LED light irradiation for 10 mins and measured after 24 hrs by MTT assay.
Details: not given
In kind it is functional, cell-based.
In the case of `Cc1cccn2c1cc1c3ccccc3nc(-c3ccc(Cl)o3)c12`, the Activity result was “Dose-dependent effect”.
On to `Clc1ccc(-c2nc3ccccc3c3cc4ccccn4c23)s1`, for which the Activity result is “Dose-dependent effect”.

The series is the same for the next values; noted with them: A549, light or radiation study.
What is called IC50 is the concentration at which inhibition is half-maximal. Regarding `Cc1cccn2c1cc1c3ccccc3nc(-c3ccc(Cl)o3)c12`, the IC50 worked out at 1130 nM.
`Clc1ccc(-c2nc3ccccc3c3cc4ccccn4c23)s1`: the IC50 came out at 1030 nM.

In another series the test system is HeLa. The series is described as follows: Photocytotoxicity against human HeLa cells assessed as cell death at 0.5 uM preincubated for 1 hr followed blue LED light irradiation for 5 mins and measured after 24 hrs by MTT assay relative to control. The series is classed as functional.
Details: not given
In the case of `Clc1ccc(-c2nc3ccccc3c3cc4ccccn4c23)s1`, the Activity was over 50%.

A further series deals with MCF7. The series is described as follows: Photocytotoxicity against human MCF7 cells assessed as reduction in cell viability preincubated for 1 hr followed blue LED light irradiation for 10 mins and measured after 24 hrs by MTT assay. In kind it is functional, cell-based.
Details: not given
(Tetrazolium dyes change colour on reduction, which living cells bring about.)
For the compound `Cc1cccn2c1cc1c3ccccc3nc(-c3ccc(Cl)o3)c12`, the Activity result was “Dose-dependent effect”.
On the same count and under the same terms, next, `Clc1ccc(-c2nc3ccccc3c3cc4ccccn4c23)s1`: “Dose-dependent effect”.

Still in this series, the particulars now being: MCF7, light or radiation study.
In the case of `Cc1cccn2c1cc1c3ccccc3nc(-c3ccc(Cl)o3)c12`, the IC50 came to 620 nM.
On the same count and under the same terms, next, `Clc1ccc(-c2nc3ccccc3c3cc4ccccn4c23)s1`: 1040 nM.

System in the next series: not listed separately
The series is described as follows: Dark toxicity in human HeLa cells assessed as reduction in cell viability up to 10 uM measured after 24 hrs by MTT assay. The series is classed as cell-based.
Details: not given
In the case of `Cc1cccn2c1cc1c3ccccc3nc(-c3ccc(Cl)o3)c12`, the Activity result is listed as “Non-Toxic”.
On to `Clc1ccc(-c2nc3ccccc3c3cc4ccccn4c23)s1`, for which the Activity entry was “Non-Toxic”.

For another series, the system named is HeLa. The series is described as follows: Photocytotoxicity against human HeLa cells assessed as plasma membrane blebbing up to 10 uM preincubated for 1 hr followed by blue LED light irradiation for 5 mins and measured after 13 hrs by Hoechst 33258 staining based fluorescence microscopic method.
Details: not given
In kind it is functional, cell-based.
For the compound `Cc1cccn2c1cc1c3ccccc3nc(-c3ccc(Cl)o3)c12`, the outcome was Active.
Still for that read-out and setting: with `Clc1ccc(-c2nc3ccccc3c3cc4ccccn4c23)s1` the entry was “Active”.

In a further series the test system is HeLa. The series is described as follows: Photocytotoxicity against human HeLa cells assessed as DNA fragmentation up to 10 uM preincubated for 1 hr followed by blue LED light irradiation for 5 mins and measured after 13 hrs by Hoechst 33258 staining based fluorescence microscopic method. The series is classed as functional, cell-based.
Details: not given
For `Cc1cccn2c1cc1c3ccccc3nc(-c3ccc(Cl)o3)c12`, the result was Active.
Same read-out and setting: with `Clc1ccc(-c2nc3ccccc3c3cc4ccccn4c23)s1` the entry was “Active”.

For the next series, the system named is HeLa. The series is described as follows: Photocytotoxicity against human HeLa cells assessed as cellular shrinkage up to 10 uM preincubated for 1 hr followed by blue LED light irradiation for 5 mins and measured after 13 hrs by Hoechst 33258 staining based fluorescence microscopic method.
Details: not given
In kind it is functional, cell-based.
`Cc1cccn2c1cc1c3ccccc3nc(-c3ccc(Cl)o3)c12`: the outcome was Active.
With `Clc1ccc(-c2nc3ccccc3c3cc4ccccn4c23)s1`, the outcome was Active.

The next series has as its system HeLa. Kind of series: Photocytotoxicity against human HeLa cells assessed as reduction in cell viability preincubated for 1 hr followed blue LED light irradiation for 10 mins and measured after 24 hrs by MTT assay. In kind it is functional, cell-based.
Details: not given
With `Cc1cccn2c1cc1c3ccccc3nc(-c3ccc(Cl)o3)c12`, the Activity entry was “Dose-dependent effect”.
For the compound `Clc1ccc(-c2nc3ccccc3c3cc4ccccn4c23)s1`, the Activity entry was “Dose-dependent effect”.

The series is the same for the next values; noted with them: light or radiation study.
On to `Cc1cccn2c1cc1c3ccccc3nc(-c3ccc(Cl)o3)c12`, for which the IC50 stood at 2070 nM.
Same read-out and setting: next, `Clc1ccc(-c2nc3ccccc3c3cc4ccccn4c23)s1`: 410 nM.

A further series concerns HeLa. Kind of series: Induction of ROS generation in human HeLa cells preincubated for 1 hr followed by blue LED light irradiation for 15 mins by DHE staining based HCS analysis. The series is classed as functional, cell-based.
Details: not given
For `Cc1cccn2c1cc1c3ccccc3nc(-c3ccc(Cl)o3)c12`, the Activity result was “Dose-dependent effect”.
The same measure, in the same setting: next, `Clc1ccc(-c2nc3ccccc3c3cc4ccccn4c23)s1`: “Dose-dependent effect”.

System in the next series: not listed separately
Kind of series: Dark toxicity in human A549 cells assessed as reduction in cell viability up to 10 uM measured after 24 hrs by MTT assay. In kind it is cell-based. As to conditions: a549, 24 h.
For `Cc1cccn2c1cc1c3ccccc3nc(-c3ccc(Cl)o3)c12`, the Activity result was “Non-Toxic”.
Still for that read-out and setting: with `Clc1ccc(-c2nc3ccccc3c3cc4ccccn4c23)s1` the entry was “Non-Toxic”.

A further series deals with HeLa. Kind of series: Photocytotoxicity against human HeLa cells assessed as reduction in cell viability preincubated for 1 hr followed blue LED light irradiation for 5 mins and measured after 24 hrs by MTT assay. The series is classed as functional, cell-based.
Details: not given
Regarding `Cc1cccn2c1cc1c3ccccc3nc(-c3ccc(Cl)o3)c12`, the Activity result was “Dose-dependent effect”.
Still for that read-out and setting: next, `Clc1ccc(-c2nc3ccccc3c3cc4ccccn4c23)s1`: “Dose-dependent effect”.

The same series, now with this note: light or radiation study.
Take `Cc1cccn2c1cc1c3ccccc3nc(-c3ccc(Cl)o3)c12`: the IC50 was 3510 nM.
In the case of `Clc1ccc(-c2nc3ccccc3c3cc4ccccn4c23)s1`, the IC50 is 490 nM.

The next series has as its system A549. The series is described as follows: Photocytotoxicity against human A549 cells assessed as reduction in cell viability preincubated for 1 hr followed blue LED light irradiation for 5 mins and measured after 24 hrs by MTT assay. In kind it is functional, cell-based.
Details: not given
As for `Cc1cccn2c1cc1c3ccccc3nc(-c3ccc(Cl)o3)c12`, the Activity entry is “Dose-dependent effect”.
Still for that read-out and setting: next, `Clc1ccc(-c2nc3ccccc3c3cc4ccccn4c23)s1`: “Dose-dependent effect”.

Still in this series, the particulars now being: A549, light or radiation study.
Turning to `Cc1cccn2c1cc1c3ccccc3nc(-c3ccc(Cl)o3)c12`, the IC50 came out at 1430 nM.
With `Clc1ccc(-c2nc3ccccc3c3cc4ccccn4c23)s1`, the IC50 amounted to 1330 nM.

The next series relates to HeLa. Kind of series: Photocytotoxicity against human HeLa cells assessed as morphological changes at 5 uM preincubated for 1 hr followed by blue LED light irradiation for 10 mins and measured after 2.5 hrs by holotomographic method. In kind it is functional, cell-based.
Details: not given
`Clc1ccc(-c2nc3ccccc3c3cc4ccccn4c23)s1`: the result was Active.

System in another series: not listed separately
Kind of series: Dark toxicity in human MCF7 cells assessed as reduction in cell viability up to 10 uM measured after 24 hrs by MTT assay. In kind it is cell-based. The settings on record: mcf7, 24 h.
As for `Cc1cccn2c1cc1c3ccccc3nc(-c3ccc(Cl)o3)c12`, the Activity result was “Non-Toxic”.
Same read-out and setting: next, `Clc1ccc(-c2nc3ccccc3c3cc4ccccn4c23)s1`: “Non-Toxic”.

The test system of the next series is HeLa. Kind of series: Photocytotoxicity against human HeLa cells assessed as chromatin condensation up to 10 uM preincubated for 1 hr followed by blue LED light irradiation for 5 mins and measured after 13 hrs by Hoechst 33258 staining based fluorescence microscopic method. The series is classed as functional, cell-based.
Details: not given
Turning to `Cc1cccn2c1cc1c3ccccc3nc(-c3ccc(Cl)o3)c12`, the result was Active.
Still for that read-out and setting: next, `Clc1ccc(-c2nc3ccccc3c3cc4ccccn4c23)s1`: “Active”.

Another series relates to MCF7. Kind of series: Photocytotoxicity against human MCF7 cells assessed as reduction in cell viability preincubated for 1 hr followed blue LED light irradiation for 5 mins and measured after 24 hrs by MTT assay.
Details: not given
In kind it is functional, cell-based.
Consider `Cc1cccn2c1cc1c3ccccc3nc(-c3ccc(Cl)o3)c12`, for which the Activity result was “Dose-dependent effect”.
Still for that read-out and setting: next, `Clc1ccc(-c2nc3ccccc3c3cc4ccccn4c23)s1`: “Dose-dependent effect”.

Still in this series, the particulars now being: MCF7, light or radiation study.
In the case of `Cc1cccn2c1cc1c3ccccc3nc(-c3ccc(Cl)o3)c12`, the IC50 is 930 nM.
On the same count and under the same terms, next, `Clc1ccc(-c2nc3ccccc3c3cc4ccccn4c23)s1`: 1680 nM.

System in another series: not listed separately
The series is described as follows: Induction of singlet oxygen production assessed as photodegradation of DPBF by measuring quantum yield after irradiation with 356 nanometer light by UV-Visible spectroscopic analysis.
Details: not given
The series is classed as functional.
As to `Cc1cccn2c1cc1c3ccccc3nc(-c3ccc(Cl)o3)c12`, the Activity came to 0.38.
Still for that read-out and setting: next, `Clc1ccc(-c2nc3ccccc3c3cc4ccccn4c23)s1`: 0.47.

The next series has as its system DNA. The series is described as follows: Induction of Escherichia coli pBR322 DNA cleavage at 20 uM after 30 mins under dark condition by agarose gel electrophoresis method. In kind it is nucleic-acid assay. As to conditions: 0.5 h.
With `Cc1cccn2c1cc1c3ccccc3nc(-c3ccc(Cl)o3)c12`, the Activity entry is “Non-Toxic”.
The same measure, in the same setting: with `Clc1ccc(-c2nc3ccccc3c3cc4ccccn4c23)s1` the entry was “Non-Toxic”.
